What all share (assay): PapG Luminex ligand binding at equilibrium
Experiment [1] concerns the target T1, E. coli CFT073 PapG-II lectin domain PapGLD variant N96S G75A, SEQ ID NO: 19 (Escherichia coli, UniProt A0A0H2VAQ6, G95A/N116S).
T1 sequence (A0A0H2VAQ6 with tags, fused parts or gaps G95A/N116S): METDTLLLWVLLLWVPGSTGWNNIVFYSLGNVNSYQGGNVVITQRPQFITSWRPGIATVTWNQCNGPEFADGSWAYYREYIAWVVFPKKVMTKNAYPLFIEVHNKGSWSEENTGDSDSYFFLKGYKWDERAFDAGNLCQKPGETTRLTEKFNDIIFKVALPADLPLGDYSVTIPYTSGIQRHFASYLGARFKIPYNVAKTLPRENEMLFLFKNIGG
As to conditions: HEPES pH 7.4, 4° C. overnight. Here is the method:
(§1) To determine the ability of PapGLD mutants to bind the porcine derived globotetraosyl ceramide ligand GalNAc-Gal-Gal-Glc-ceramide (GbO4), a Luminex ligand binding assay was developed. Surfactant Protein-A (SP-A) was coupled to the surface of MagPlex beads by EDC/NHS, to capture the lipid tail of the globotetraosyl ceramide. The Globotetraosyl ceramide/SP-A beads were incubated with an eight-point threefold titration of PapG in a 96 well flat bottom white plate with final volume of 100 microliters of 50 mM HEPES PH 7.4, 10 mM NaCl, 0.0005% Tween 20 shaking at 300 rpm, 4° C. overnight. After 20-24 hours the ligand binding plates were read on a FlexMap 3D plate reader for measurement of well-bead region specific MFI. Ligand binding equilibrium dissociation constants (Kd) were calculated assuming one site specific binding and interpolated using non-linear curve fitting (GraphPad Prism) as the ligand concentration needed to achieve half-maximal binding. The Luminex derived apparent Kd values are based on approximately fifty bead counts per assay sample.
(§2) To determine Luminex ligand binding affinities of PapG mutants for the synthetic globoside ligand Gal-Glc-phenoxy-octyl-amine (GbO2Mpo), a Luminex ligand binding assay was developed based on the direct coupling of the amine reactive globoside ligand to the EDC/NHS activated carboxylic surface of MagPlex beads. Synthesis of GbO2Mpo ligand with an octyl amine linker (for coupling to beads) was performed via methods described previously. The GbO2Mpo beads were incubated with an 8-point, threefold titration of PapG in a 96-well flat bottom white plate with final volume of 100 μl of 50 mM HEPES pH 7.4, 10 mM NaCl, 0.0005% Tween 20 shaking at 300 rpm, 4° C. overnight. After 20-24 hours the ligand binding plates were read on a FlexMap 3D plate reader for measurement of well-bead region specific MFI.
(§3) Binding of PapG proteins to GbO2 or GbO4 ligands was evaluated using a Luminex platform wherein ligands were coupled to MagPlex beads via surfactant protein A (for […]) or directly using […] conjugation (for […]). This assay was used to rank order binding affinities of the mutants, reported as Kd values interpolated from protein antigen titration curves (Table 7).

Experiment [2] concerns the target T2, E. coli CFT073 full-length donor strand complemented PapG-II, PapGDSF N96S N242S N286S (Escherichia coli, UniProt A0A0H2VAQ6, N116S/N262S/N306S).
T2 construct: mouse IgGK signal peptide, C-terminal 8xHis, ExpiCHO, purified
T2 sequence (A0A0H2VAQ6 with tags, fused parts or gaps N116S/N262S/N306S): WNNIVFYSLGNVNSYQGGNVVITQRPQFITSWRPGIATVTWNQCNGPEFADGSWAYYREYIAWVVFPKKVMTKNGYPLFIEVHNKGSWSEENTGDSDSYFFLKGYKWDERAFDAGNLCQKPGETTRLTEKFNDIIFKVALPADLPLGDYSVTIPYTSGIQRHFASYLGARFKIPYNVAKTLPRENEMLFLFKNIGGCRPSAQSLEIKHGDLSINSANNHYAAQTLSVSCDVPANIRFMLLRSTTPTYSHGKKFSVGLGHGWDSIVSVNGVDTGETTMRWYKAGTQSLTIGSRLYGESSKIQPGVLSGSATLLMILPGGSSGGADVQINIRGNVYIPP
Conditions: HEPES pH 7.4, 4° C. overnight. How it is done: as §1, §2, §3

The target in experiment [3] is T3, E. coli CFT073 PapG-II lectin domain PapGLD variant N96S G168A, SEQ ID NO: 17 (Escherichia coli, UniProt A0A0H2VAQ6, G188A/N116S).
T3 sequence (A0A0H2VAQ6 with tags, fused parts or gaps N116S/G188A): T1 sequence (A0A0H2VAQ6 with tags, fused parts or gaps G95A/N116S) with A95G, G188A
As to conditions: HEPES pH 7.4, 4° C. overnight. How it is done:
as §1, §2, §3

In experiment [4] the target is T4, E. coli CFT073 PapG-II lectin domain PapGLD N96S WT v1, SEQ ID NO: 13 (Escherichia coli, UniProt A0A0H2VAQ6, N116S).
T4 sequence (A0A0H2VAQ6 with tags, fused parts or gaps N116S): T1 sequence (A0A0H2VAQ6 with tags, fused parts or gaps G95A/N116S) with A95G
Conditions: HEPES pH 7.4, 4° C. overnight. Here is the method: as §1, §2, §3

For experiment [5], the target named is T5, E. coli CFT073 PapG-II lectin domain PapGLD variant N96S G147A, SEQ ID NO: 21 (Escherichia coli, UniProt A0A0H2VAQ6, G167A/N116S).
T5 sequence (A0A0H2VAQ6 with tags, fused parts or gaps N116S/G167A): T1 sequence (A0A0H2VAQ6 with tags, fused parts or gaps G95A/N116S) with A95G, G167A
As to conditions: HEPES pH 7.4, 4° C. overnight. How it is done: as §1, §2, §3

In experiment [6] the target is T6, E. coli CFT073 PapG-II lectin domain PapGLD variant N96S G104A, SEQ ID NO: 16 (Escherichia coli, UniProt A0A0H2VAQ6, G124A/N116S).
T6 sequence (A0A0H2VAQ6 with tags, fused parts or gaps N116S/G124A): T1 sequence (A0A0H2VAQ6 with tags, fused parts or gaps G95A/N116S) with A95G, G124A
Conditions: for Kd: HEPES pH 7.4, 4° C. overnight. Here is the method: as §1, §2, §3

Setting [7] is: GbO4 beads, read-out: Kd (GbO4).
Where [8] appears, read: GbO2Mpo beads, read-out: Kd (GbO2).

Changes are numbered by the printed parent chain. Entries after “also recorded” stand apart in the source; their conditions may differ. Like-named read-outs stand apart in the source and are kept apart here.

GalNAc-Gal-Gal-Glc-ceramide [GbO4]: the Kd (commonly the equilibrium constant for the complex coming apart) in experiment [1] (setting [7]) is more than 10 nM; in experiment [2] (setting [7]) it was 3 nM; in experiment [3] (setting [7]), more than 100 nM; in experiment [4] (setting [7]), 14.1 nM; in experiment [5] (setting [7]), more than 300 nM; in experiment [6] (setting [7]) it was more than 300 nM. For the same substance, in experiment [6], the “binding to GbO4 (in words)” value is reported as “lower the binding affinity; also recorded: eliminate ligand binding”.
Gal-Glc-phenoxy-octyl-amine [GbO2]: the dissociation constant Kd in experiment [1] (setting [8]) was 2.2 nM; in experiment [2] (setting [8]), 2.2 nM; in experiment [3] (setting [8]), 2.7 nM; in experiment [4] (setting [8]), 0.7 nM; in experiment [5] (setting [8]), 4.6 nM; in experiment [6] (setting [8]), more than 300 nM.

Source of the values: US20260061042A1, “POLYNUCLEOTIDE COMPOSITIONS AND USES THEREOF” (Pfizer Inc., priority 2024, published 2026).
